The structures appear in SMILES notation. ≈ marks a conversion by molar mass, not a printed value. A value given as a limit tells only on which side of the number the result lay.

The text below walks through data of ChEMBL document CHEMBL5335866, “Structure-Based Optimization of Selective and Brain Penetrant CK1δ Inhibitors for the Treatment of Circadian Disruptions” (ACS Med Chem Lett, 2024).

Data set [1] deals with T1, Dual specificity mitogen-activated protein kinase kinase 3 (Homo sapiens) (UniProt P46734).
T1 sequence (whole entry): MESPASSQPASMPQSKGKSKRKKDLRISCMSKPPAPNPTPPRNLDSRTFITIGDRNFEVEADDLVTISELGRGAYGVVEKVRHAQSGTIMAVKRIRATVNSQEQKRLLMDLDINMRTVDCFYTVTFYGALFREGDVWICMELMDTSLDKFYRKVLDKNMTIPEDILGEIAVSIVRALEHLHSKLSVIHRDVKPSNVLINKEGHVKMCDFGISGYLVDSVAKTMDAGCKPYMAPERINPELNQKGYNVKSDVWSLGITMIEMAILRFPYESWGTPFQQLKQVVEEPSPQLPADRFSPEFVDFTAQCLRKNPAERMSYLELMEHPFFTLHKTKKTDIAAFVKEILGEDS
The experiment in a line: Inhibition of MKK3 (unknown origin) at 1 uM by radiometric assay relative to control.

Data set [2] in a line: Cmax in Sprague-Dawley rat at 5 mg/kg, po measured for 24 hrs by LC-MS/MS analysis. Format: ADME, organism-based. Also noted: dose 5 mg/kg, time 24 hrs, route po. Particulars: in vivo.
A short description of data set [3]: Intrinsic clearance in human liver microsomes at 1 uM preincubated for 5 mins followed by NADPH addition measured for 60 mins by LC-MS/MS analysis. In kind it is ADME, Microsome. Particulars: time 65 min, read-out: CLH. A general note: Liver microsomes are a subcellular fraction often used to study metabolism.
Data set [4] deals with T2, TGF-beta receptor type-1 (Homo sapiens) (UniProt P36897).
T2 sequence (whole entry): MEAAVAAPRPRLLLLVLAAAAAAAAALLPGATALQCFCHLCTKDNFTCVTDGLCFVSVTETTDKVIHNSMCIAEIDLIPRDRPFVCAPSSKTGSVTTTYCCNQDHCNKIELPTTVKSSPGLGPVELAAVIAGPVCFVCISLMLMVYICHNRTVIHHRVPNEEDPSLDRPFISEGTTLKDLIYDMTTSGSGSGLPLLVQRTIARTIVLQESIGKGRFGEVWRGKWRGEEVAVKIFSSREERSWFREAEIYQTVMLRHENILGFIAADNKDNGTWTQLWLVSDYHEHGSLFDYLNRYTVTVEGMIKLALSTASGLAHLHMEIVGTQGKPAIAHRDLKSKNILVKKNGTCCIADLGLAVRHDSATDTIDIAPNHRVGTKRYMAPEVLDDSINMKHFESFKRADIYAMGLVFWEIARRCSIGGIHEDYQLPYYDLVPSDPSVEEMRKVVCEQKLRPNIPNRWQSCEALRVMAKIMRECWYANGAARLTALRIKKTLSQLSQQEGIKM
Put plainly: Inhibition of TGFBR1 (unknown origin) at 1 uM by radiometric assay relative to control.

Data set [5] can be described thus: Intrinsic clearance in rat liver microsomes at 1 uM preincubated for 5 mins followed by NADPH addition measured for 60 mins by LC-MS/MS analysis. In kind it is ADME, Microsome. The conditions noted are these: time 65 min, read-out: CLH.
Data set [6] addresses Mitogen-activated protein kinase 14 (Homo sapiens, UniProt Q16539). The experiment in a line: Inhibition of p38 alpha (unknown origin).
Data set [7] deals with Epithelial discoidin domain-containing receptor 1 (Homo sapiens) (UniProt Q08345). The experiment in a line: Inhibition of DDR1 (unknown origin) at 1 uM by radiometric assay relative to control.
Epithelial discoidin domain-containing receptor 1 (Homo sapiens), sequence (Q08345 whole entry, the tested form may be a part): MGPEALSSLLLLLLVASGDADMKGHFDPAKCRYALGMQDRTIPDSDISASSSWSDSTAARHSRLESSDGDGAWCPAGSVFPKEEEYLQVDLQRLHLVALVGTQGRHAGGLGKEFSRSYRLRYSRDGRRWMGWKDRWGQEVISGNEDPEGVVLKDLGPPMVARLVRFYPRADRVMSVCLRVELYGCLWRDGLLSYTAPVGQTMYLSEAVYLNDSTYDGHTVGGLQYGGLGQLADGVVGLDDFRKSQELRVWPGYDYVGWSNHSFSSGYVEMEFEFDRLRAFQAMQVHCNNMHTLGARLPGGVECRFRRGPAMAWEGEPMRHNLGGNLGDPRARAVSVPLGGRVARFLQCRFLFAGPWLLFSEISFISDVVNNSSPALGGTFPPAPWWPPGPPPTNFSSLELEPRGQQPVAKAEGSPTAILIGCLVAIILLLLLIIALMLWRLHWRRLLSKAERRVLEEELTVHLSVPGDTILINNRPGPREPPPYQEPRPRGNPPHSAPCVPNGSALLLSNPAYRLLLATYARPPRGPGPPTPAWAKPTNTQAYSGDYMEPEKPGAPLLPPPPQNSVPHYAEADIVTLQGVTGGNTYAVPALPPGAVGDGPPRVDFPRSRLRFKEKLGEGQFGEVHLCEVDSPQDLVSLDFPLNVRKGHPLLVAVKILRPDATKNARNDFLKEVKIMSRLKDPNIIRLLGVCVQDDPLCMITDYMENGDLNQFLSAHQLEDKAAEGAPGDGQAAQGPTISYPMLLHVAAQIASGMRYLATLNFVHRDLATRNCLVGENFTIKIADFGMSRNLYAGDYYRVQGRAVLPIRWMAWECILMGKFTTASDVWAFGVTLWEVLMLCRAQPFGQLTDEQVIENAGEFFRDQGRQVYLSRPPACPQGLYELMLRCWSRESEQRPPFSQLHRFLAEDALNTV
Data set [8] in a line: Half life in Sprague-Dawley rat at 5 mg/kg, po measured for 24 hrs by LC-MS/MS analysis. In kind it is ADME, organism-based. The conditions noted are these: in vivo.
The target in data set [9] is TRAF2 and NCK-interacting protein kinase (Homo sapiens, UniProt Q9UKE5). Put plainly: Inhibition of TNIK (unknown origin) at 1 uM by radiometric assay relative to control.
Data set [10] in a line: Solubility of compound at pH 7 measured for 2 to 5 days by HPLC analysis. In kind it is physicochemical. Particulars: buffer, time 2-5 day.
The target in data set [11] is Mitogen-activated protein kinase 11 (Homo sapiens, UniProt Q15759). The experiment in a line: Inhibition of p38 beta (unknown origin).
Mitogen-activated protein kinase 11, sequence (Q15759 whole entry): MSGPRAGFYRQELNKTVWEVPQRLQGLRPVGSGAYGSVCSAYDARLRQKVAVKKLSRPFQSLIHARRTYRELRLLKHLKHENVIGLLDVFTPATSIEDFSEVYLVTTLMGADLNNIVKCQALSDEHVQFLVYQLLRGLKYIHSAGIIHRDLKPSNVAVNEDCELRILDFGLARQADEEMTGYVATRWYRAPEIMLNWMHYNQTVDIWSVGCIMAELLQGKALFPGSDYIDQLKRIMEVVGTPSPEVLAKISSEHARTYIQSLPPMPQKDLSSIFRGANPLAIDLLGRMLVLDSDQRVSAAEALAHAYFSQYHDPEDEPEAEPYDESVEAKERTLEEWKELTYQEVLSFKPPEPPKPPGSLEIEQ
Data set [12] addresses T3, Serine/threonine-protein kinase NLK (Homo sapiens) (UniProt Q9UBE8).
T3 sequence (whole entry): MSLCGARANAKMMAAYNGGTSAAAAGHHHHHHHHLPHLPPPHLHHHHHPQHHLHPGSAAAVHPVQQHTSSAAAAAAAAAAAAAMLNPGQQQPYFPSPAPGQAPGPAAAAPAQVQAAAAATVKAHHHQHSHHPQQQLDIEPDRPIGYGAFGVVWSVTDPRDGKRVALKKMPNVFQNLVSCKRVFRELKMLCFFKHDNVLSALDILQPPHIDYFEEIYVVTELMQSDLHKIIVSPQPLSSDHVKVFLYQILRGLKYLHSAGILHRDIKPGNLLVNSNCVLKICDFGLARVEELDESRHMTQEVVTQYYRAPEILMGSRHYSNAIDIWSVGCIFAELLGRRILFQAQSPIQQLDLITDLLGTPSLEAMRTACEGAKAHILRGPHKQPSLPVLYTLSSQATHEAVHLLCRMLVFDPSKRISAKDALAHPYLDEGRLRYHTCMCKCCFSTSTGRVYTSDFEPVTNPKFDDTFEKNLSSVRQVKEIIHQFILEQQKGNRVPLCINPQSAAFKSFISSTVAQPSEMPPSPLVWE
Put plainly: Inhibition of NLK (unknown origin) at 1 uM by radiometric assay relative to control.

Data set [13] can be described thus: AUC (infinity) in Sprague-Dawley rat at 5 mg/kg, po measured for 24 hrs by LC-MS/MS analysis. Format: ADME, organism-based. The arrangement: time 24 hrs, dose 5 mg/kg, route po. The conditions noted are these: in vivo.
Data set [14] is described as follows: Clearance in Sprague-Dawley rat at 1 mg/kg, iv measured for 24 hrs by LC-MS/MS analysis. Particulars: in vivo. In kind it is ADME, organism-based.
Data set [15] has as its target Mitogen-activated protein kinase kinase kinase 20 (Homo sapiens) (UniProt Q9NYL2). Put plainly: Inhibition of ZAK (unknown origin) at 1 uM by radiometric assay relative to control.
The nature of data set [16]: Volume of distribution at steady state in Sprague-Dawley rat at 1 mg/kg, iv measured for 24 hrs by LC-MS/MS analysis. Format: ADME, organism-based. Particulars: in vivo, read-out: Vdss.
Data set [17] is described as follows: Apparent permeability across apical to basal side in MDCK cells expressing MDR1 at 5 uM incubated for 60 mins by LC/MS/MS analysis. Format: ADME, cell-based, Canis lupus familiaris, MDCK1. The conditions noted are these: dog.
Data set [18] has as its target Citron Rho-interacting kinase (Homo sapiens) (UniProt O14578). The experiment in a line: Inhibition of CRIK (unknown origin) at 1 uM by radiometric assay relative to control.
A short description of data set [19]: Oral bioavailability in Sprague-Dawley rat at 5 mg/kg measured for 24 hrs by LC-MS/MS analysis. Format: ADME, organism-based. Particulars: in vivo.
Data set [20] can be described thus: Solubility of compound at pH 2 measured for 2 to 5 days by HPLC analysis. Particulars: buffer, time 2-5 day. Format: physicochemical.
The target of data set [21] is Receptor-interacting serine/threonine-protein kinase 2 (Homo sapiens) (UniProt O43353). Put plainly: Inhibition of RIPK2 (unknown origin) at 1 uM by radiometric assay relative to control.
The test system of the next data set is MDR1. The experiment in a line: Efflux ratio of apparent permeability across basal to apical side over apical to basal side in MDCK cells expressing MDR1 at 5 uM incubated for 60 mins by LC/MS/MS analysis. The conditions noted are these: dog. Format: ADME, cell-based, Canis lupus familiaris, MDCK1.
The target in data set [22] is T4, Casein kinase I isoform delta (Homo sapiens, UniProt P48730). Put plainly: Inhibition of N-terminal GST-tagged recombinant human CK1 delta expressed in Escherichia coli BL21 cells using PLSRTL-pS-VA-pS-LPGL as substrate measured after 60 mins in presence of ATP by ADP-Glo assay.
T4 sequence (P48730 whole entry, canonical isoform): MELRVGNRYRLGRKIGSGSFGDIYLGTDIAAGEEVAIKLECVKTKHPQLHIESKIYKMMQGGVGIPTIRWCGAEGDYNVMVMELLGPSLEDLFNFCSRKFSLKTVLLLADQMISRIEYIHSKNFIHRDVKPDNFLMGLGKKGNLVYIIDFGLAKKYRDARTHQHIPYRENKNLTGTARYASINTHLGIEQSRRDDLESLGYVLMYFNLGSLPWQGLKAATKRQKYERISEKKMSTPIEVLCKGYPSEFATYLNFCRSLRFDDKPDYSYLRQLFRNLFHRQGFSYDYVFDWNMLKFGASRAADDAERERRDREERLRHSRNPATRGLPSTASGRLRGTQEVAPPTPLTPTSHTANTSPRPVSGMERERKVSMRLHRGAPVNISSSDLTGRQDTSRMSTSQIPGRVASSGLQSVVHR
The target in data set [23] is T4, Casein kinase I isoform delta. Put plainly: Displacement of kinase tracer 8 from NanoLuc-tagged CK1 delta (unknown origin) transfected in CHO cells by BRET assay. Format: cell-based. On the technique in general: Bioluminescence resonance energy transfer reports proximity on the nanometre scale.

Mitogen-activated protein kinase 14, sequence (Q16539 whole entry, the tested form may be a part): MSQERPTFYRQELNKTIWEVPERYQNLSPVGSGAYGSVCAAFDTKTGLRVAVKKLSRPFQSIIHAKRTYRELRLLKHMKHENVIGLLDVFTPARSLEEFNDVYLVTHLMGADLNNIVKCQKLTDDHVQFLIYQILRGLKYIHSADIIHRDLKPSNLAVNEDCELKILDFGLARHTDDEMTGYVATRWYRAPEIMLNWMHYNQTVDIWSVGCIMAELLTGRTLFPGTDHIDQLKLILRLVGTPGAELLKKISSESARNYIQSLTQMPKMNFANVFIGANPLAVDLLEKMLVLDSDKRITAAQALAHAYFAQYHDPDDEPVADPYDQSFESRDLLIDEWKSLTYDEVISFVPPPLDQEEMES
Citron Rho-interacting kinase (Homo sapiens), sequence (O14578 whole entry): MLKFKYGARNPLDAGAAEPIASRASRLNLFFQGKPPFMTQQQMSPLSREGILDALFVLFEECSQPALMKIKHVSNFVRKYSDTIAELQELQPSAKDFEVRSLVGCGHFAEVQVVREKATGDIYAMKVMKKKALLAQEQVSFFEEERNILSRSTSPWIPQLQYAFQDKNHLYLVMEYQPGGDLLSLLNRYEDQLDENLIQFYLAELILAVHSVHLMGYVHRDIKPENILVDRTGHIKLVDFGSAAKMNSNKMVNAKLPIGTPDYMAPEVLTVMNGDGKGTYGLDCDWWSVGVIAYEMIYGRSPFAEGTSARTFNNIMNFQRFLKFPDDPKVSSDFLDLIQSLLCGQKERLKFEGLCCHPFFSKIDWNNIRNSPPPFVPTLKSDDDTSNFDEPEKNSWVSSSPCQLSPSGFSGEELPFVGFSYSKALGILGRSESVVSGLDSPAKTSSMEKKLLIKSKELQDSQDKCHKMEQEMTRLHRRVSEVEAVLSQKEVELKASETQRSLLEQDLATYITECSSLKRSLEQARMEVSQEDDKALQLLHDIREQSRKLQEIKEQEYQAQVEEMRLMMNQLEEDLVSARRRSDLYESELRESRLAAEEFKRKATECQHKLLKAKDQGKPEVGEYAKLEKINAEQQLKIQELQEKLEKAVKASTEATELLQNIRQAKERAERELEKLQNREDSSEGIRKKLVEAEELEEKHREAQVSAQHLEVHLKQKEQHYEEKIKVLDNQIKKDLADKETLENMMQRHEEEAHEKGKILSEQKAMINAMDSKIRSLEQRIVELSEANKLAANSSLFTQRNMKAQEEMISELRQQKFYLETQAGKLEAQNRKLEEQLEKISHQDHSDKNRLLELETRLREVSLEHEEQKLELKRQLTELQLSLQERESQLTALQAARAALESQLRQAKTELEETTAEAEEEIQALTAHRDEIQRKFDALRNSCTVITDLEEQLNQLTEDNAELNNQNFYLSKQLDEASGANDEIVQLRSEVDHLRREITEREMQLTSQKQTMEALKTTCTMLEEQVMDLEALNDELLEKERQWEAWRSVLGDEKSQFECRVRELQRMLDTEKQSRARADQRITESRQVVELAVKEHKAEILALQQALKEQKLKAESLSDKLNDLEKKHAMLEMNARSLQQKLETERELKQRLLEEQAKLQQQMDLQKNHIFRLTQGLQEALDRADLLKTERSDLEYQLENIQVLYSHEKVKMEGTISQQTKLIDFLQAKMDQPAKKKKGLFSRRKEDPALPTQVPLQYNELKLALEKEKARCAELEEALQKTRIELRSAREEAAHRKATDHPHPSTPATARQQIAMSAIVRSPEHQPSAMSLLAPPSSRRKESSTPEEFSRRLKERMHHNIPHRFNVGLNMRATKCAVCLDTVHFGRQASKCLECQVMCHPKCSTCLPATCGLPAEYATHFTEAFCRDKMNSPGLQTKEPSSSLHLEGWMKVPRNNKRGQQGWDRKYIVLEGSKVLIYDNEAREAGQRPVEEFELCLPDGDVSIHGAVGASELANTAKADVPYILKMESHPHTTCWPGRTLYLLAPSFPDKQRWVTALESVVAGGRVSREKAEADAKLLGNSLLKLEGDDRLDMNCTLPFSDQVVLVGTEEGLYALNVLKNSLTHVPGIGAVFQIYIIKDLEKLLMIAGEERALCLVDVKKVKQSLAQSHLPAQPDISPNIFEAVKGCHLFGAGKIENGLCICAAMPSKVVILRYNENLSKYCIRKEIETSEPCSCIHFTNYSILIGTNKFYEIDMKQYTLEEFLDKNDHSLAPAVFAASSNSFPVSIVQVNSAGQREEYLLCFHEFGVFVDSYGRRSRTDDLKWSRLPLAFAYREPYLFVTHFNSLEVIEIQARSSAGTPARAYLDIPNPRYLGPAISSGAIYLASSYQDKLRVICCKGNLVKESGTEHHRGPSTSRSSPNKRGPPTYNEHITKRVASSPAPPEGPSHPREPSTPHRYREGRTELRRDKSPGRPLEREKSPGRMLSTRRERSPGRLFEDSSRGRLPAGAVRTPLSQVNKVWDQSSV
Mitogen-activated protein kinase kinase kinase 20 (Homo sapiens), sequence (Q9NYL2 2-800 limits assumed): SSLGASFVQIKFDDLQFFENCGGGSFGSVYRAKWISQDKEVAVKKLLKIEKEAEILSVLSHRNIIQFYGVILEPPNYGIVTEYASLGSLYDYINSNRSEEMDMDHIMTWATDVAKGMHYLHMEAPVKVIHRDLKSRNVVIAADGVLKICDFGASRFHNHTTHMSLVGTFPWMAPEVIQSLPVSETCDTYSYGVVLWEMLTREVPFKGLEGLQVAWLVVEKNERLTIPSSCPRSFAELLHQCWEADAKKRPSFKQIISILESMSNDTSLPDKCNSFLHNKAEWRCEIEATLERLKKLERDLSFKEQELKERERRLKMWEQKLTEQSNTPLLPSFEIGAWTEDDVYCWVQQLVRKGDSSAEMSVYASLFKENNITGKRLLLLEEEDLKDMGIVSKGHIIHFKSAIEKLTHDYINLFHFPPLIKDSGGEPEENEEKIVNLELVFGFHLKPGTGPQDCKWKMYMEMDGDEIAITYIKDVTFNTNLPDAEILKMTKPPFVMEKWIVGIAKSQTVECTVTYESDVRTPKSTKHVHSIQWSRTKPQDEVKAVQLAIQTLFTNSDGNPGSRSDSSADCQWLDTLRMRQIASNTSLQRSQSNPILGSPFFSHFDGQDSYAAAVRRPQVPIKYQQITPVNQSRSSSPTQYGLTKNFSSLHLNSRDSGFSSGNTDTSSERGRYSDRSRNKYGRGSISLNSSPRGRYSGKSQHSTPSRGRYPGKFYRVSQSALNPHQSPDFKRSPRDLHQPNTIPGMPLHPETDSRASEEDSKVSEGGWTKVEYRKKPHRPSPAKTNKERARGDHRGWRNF

Regarding `Cn1cc(-c2ccnc3[nH]ccc23)c(-c2ccc(F)cn2)n1`, the inhibition stood at 74% in data set [1]; 98% in data set [4]; 89% in data set [7]; 60% in data set [9]; 74% in data set [12]; 100% in data set [15]. The inhibition in data set [18] is 80%; in data set [21], 81%. In addition, the peak level in [2] (Cmax) was 1600 nM. For the same compound, the microsomal CLint at 1 µM in [3] amounted to 7.7 µL/min/mg; in [5], 53.5 µL/min/mg. In addition, the IC50 is 0.93 µM in data set [6] and > 1 µM in data set [11]. Moreover, in data set [8], the half-life was 1.3 h. Also, the solubility in data set [10] and in [20] was > 400 µM each time. The AUC(0-inf) in [13] came out at 755 ng·h/mL. Further, in data set [14], the clearance was 35 mL/min/kg. Also, the Vd in [16] stood at 0.6 L/kg. In addition, the Papp A→B at 1 h, 5 µM in data set [17] was 19.6 ×10⁻⁶ cm/s. The bioavailability in data set [19] amounted to 32%.

As to `Cn1cc(-c2ccnc3[nH]ccc23)c(-c2ccc(F)cc2)n1`, the microsomal CLint at 1 µM in data set [3] stood at 45 µL/min/mg; in data set [5], 170 µL/min/mg. Also, the IC50 in [6] was determined as 0.14 µM; in [11], 0.25 µM; in data set [22], 0.0022 µM. Besides, the figures for the solubility in [10] and in data set [20] were < 4 µM and > 400 µM, respectively. In [17], the apparent permeability from apical to basolateral (Papp A→B) at 1 h, 5 µM was 25.9 ×10⁻⁶ cm/s. Moreover, the efflux ratio at 1 h, 5 µM in the data set with MDR1 amounted to 1.02.

In [2], `Cn1cc(-c2ccnc3[nH]ncc23)c(-c2ccc(F)cc2)n1` yielded a Cmax of 2400 nM. The microsomal CLint at 1 µM in data set [3] came to 9.4 µL/min/mg; in [5], 42.2 µL/min/mg. Besides, the IC50 was 0.25 µM in data set [6], 0.78 µM in data set [11], 0.036 µM in [23] and 0.0014 µM in [22]. In [8], this compound showed a half-life of 2 h. Moreover, the solubility in data set [10] was found to be 8.7 µM (≈ 2.55 µg/mL); in data set [20], 112 µM (≈ 32.9 µg/mL). For the same compound, the AUC(0-inf) in [13] was 2580 ng·h/mL. This compound yielded a clearance in data set [14] of 23 mL/min/kg. Moreover, the Vd in data set [16] turned out to be 1.6 L/kg. Besides, the Papp A→B at 1 h, 5 µM in data set [17] amounted to 27.3 ×10⁻⁶ cm/s. The bioavailability in data set [19] worked out at 70%. In the data set with MDR1, the efflux ratio at 1 h, 5 µM was 3.

By inhibition is commonly meant how much of the control response was suppressed. Lower therefore signals a weak effect. As a reminder, the Cmax is the peak of the concentration-time curve. The term IC50 denotes the concentration needed to halve the response being measured. As usually defined, the half-life is the time needed for the level to fall by half in the phase considered. Low readings indicate rapid decline, high ones slow decline. Usually solubility stands for the dissolved amount per volume that the medium holds. Lower therefore signals little dissolved substance. As usually defined, the AUC(0-inf) is total exposure, with the tail of the curve extrapolated. Lower therefore signals less exposure. As a reminder, the clearance is the rate of elimination divided by the concentration. Usually Papp A→B stands for how fast a substance crosses the layer from the apical side. The bioavailability is dose-corrected exposure relative to a reference, in per cent. As usually defined, the efflux ratio is a quotient of directional permeabilities that is used to spot active efflux.
